By IC50 is commonly meant the point on the concentration scale where inhibition reaches its midpoint.

One assay deals with Cryptosporidium parvum. The assay is described as follows: Antiparasitic activity against Cryptosporidium parvum in HCT8 cells. Particulars: HCT-8. In kind it is functional, organism-based.
Assay [1] concerns Meriones unguiculatus. Briefly: Deparasitization of Cryptosporidium parvum infected gerbils treated with 400 mg/kg at day 12. Type of assay: functional.
Assay [2] relates to Meriones unguiculatus. Briefly: Reduction of oocyst in stools of Cryptosporidium parvum infected gerbils treated with 400 mg/kg at day 8. Type of assay: functional. Also on record: scale not given: the % may be the effect or the level left.
The subject of assay [3] is Meriones unguiculatus. The assay is described as follows: Reduction of oocyst in stools of Cryptosporidium parvum infected gerbils treated with 400 mg/kg at day 12. In kind it is functional. Also on record: scale not given: the % may be the effect or the level left.
Another assay concerns Plasmodium falciparum. The assay is described as follows: Antiparasitic activity against Plasmodium falciparum T9-96 infected […] cells. Type of assay: functional, organism-based.
The subject of the next assay is Trichomonas vaginalis. Briefly: Antiparasitic activity against Trichomonas vaginalis in […] cells. Type of assay: functional, organism-based. Particulars: UCH-1.
Assay [4] deals with Meriones unguiculatus. The assay is described as follows: Deparasitization of Cryptosporidium parvum infected gerbils treated with 200 mg/kg at day 8. Type of assay: functional.
Assay [5] concerns Meriones unguiculatus. Briefly: Deparasitization of Cryptosporidium parvum infected gerbils treated with 400 mg/kg at day 8. Type of assay: functional.
Assay [6] relates to Meriones unguiculatus. Briefly: Reduction of oocyst in stools of Cryptosporidium parvum infected gerbils treated with 200 mg/kg at day 8. Type of assay: functional. Further details: scale not given: the % may be the effect or the level left.
Assay [7] concerns Meriones unguiculatus. Briefly: Deparasitization of Cryptosporidium parvum infected gerbils treated with 100 mg/kg at day 8. In kind it is functional.
In assay [8] the test system is Meriones unguiculatus. Briefly: Reduction of oocyst in stools of Cryptosporidium parvum infected gerbils treated with 100 mg/kg at day 8. Further details: scale not given: the % may be the effect or the level left. In kind it is functional.

`O=C(Cc1ccc([N+](=O)[O-])cc1)c1c(O)cc(O)cc1O`: in the assay on Cryptosporidium parvum, the half-maximal inhibitory concentration (IC50) is 70.8 µM.

For `CCOC(=O)c1oc2cc(O)cc(O)c2c(=O)c1-c1ccc(Br)cc1`, the values for the Activity in the assay on Meriones unguiculatus [1], in the assay on Meriones unguiculatus [2] and with Meriones unguiculatus [3] were 13%, 53.5% and 67%, respectively. Besides, the IC50 in the assay with Cryptosporidium parvum was 0.6 µM.

The molecule `O=C(O)c1oc2cc(O)cc(O)c2c(=O)c1-c1cccc(Br)c1` returned a half-inhibitory concentration (IC50) with Cryptosporidium parvum of 20.1 µM.

The molecule `O=C1c2c(O)cc(O)cc2OCC1c1ccc([N+](=O)[O-])cc1` (stereo not drawn) gave a 50% inhibitory concentration (IC50) in the assay on Cryptosporidium parvum of 11.7 µM.

`O=c1c(-c2ccc([N+](=O)[O-])cc2)coc2cc(O)cc(O)c12`: the 50% inhibitory concentration (IC50) in the assay on Plasmodium falciparum worked out at 20 µM; in the assay on Cryptosporidium parvum, 1.8 µM; with Trichomonas vaginalis it was 8 µM.

On to `O=c1c(-c2cccc([N+](=O)[O-])c2)coc2cc(O)cc(O)c12`, for which, in the assay with Cryptosporidium parvum, the IC50 was 0.3 µM.

As to `CCOC(=O)c1oc2cc(O)cc(O)c2c(=O)c1-c1ccc([N+](=O)[O-])cc1`, the 50% inhibitory concentration (IC50) in the assay on Cryptosporidium parvum was 64.1 µM.

For the molecule `O=C(Cc1ccc(Br)cc1)c1c(O)cc(O)cc1O`, the midpoint of inhibition with Cryptosporidium parvum, the IC50, lay at 15.9 µM.

`O=c1c(-c2ccc(Br)cc2)coc2cc(O)cc(O)c12` returned an IC50 in the assay on Cryptosporidium parvum of 1.3 µM.

Molecule `O=c1c(-c2cccc(Br)c2)coc2cc(O)cc(O)c12` registered a 50% inhibitory concentration (IC50) in the assay with Cryptosporidium parvum of 0.4 µM.

On to `O=C(Cc1cccc([N+](=O)[O-])c1)c1c(O)cc(O)cc1O`, for which, in the assay with Cryptosporidium parvum, it took 464 µM to reach half-maximal inhibition (IC50).

With `CCOC(=O)c1oc2cc(O)cc(O)c2c(=O)c1-c1cccc([N+](=O)[O-])c1`, half-maximal inhibition with Cryptosporidium parvum (IC50) was put at 15.8 µM.

Take `O=C(Cc1cccc(Br)c1)c1c(O)cc(O)cc1O`: in the assay with Cryptosporidium parvum, the IC50 is 17.2 µM.

As for `CCOC(=O)c1oc2cc(O)cc(O)c2c(=O)c1-c1cccc(Br)c1`, the Activity in the assay with Meriones unguiculatus [4] was 60%; in the assay on Meriones unguiculatus [5], 60%; in the assay on Meriones unguiculatus [6], 90.5%; with Meriones unguiculatus [2], 92%. The IC50 in the assay with Cryptosporidium parvum was determined as 1.6 µM.

As for `CC(=O)Oc1ccccc1C(=O)Nc1ncc([N+](=O)[O-])s1` [NITAZOXANIDE], the Activity in the assay with Meriones unguiculatus [4] is 14%; in the assay with Meriones unguiculatus [6], 55%. Further, in the assay on Cryptosporidium parvum, the midpoint of inhibition, the IC50, lay at 3.25 µM.

Consider `NC[C@@H]1O[C@H](O[C@H]2[C@@H](O)[C@H](O[C@@H]3[C@@H](O)[C@H](N)C[C@H](N)[C@H]3O[C@H]3O[C@H](CO)[C@@H](O)[C@H](O)[C@H]3N)O[C@@H]2CO)[C@H](N)[C@@H](O)[C@@H]1O` [PAROMOMYCIN], for which the Activity is on record as 14% with Meriones unguiculatus [7] and 17.6% in the assay with Meriones unguiculatus [8].

Source of the values: ChEMBL document CHEMBL1149465, “Identification of isoflavone derivatives as effective anticryptosporidial agents in vitro and in vivo” (J Med Chem, 2006).
